Measurements: patent US20260374754A1, “N-((ISOQUINOLIN-6-YL)METHYL)-1H-PYRAZOLE-4-CARBOXAMIDE DERIVATIVES AS PLASMA KALLIKREIN INHIBITORS FOR THE TREATMENT OF HEREDITARY ANGIODEMA” (Takeda Pharmaceutical Company Limited, priority 2022, published 2026)
Structures can show the parent of a compound that is named as a salt.

target: human activated kallikrein enzyme (Homo sapiens, UniProt P03952); assay: Inhibition of human activated plasma kallikrein, fluorogenic PFR-AMC substrate, 500 pM enzyme format; assay type: biochemical; conditions: 500 pM activated kallikrein; 300 μM PFR-AMC; 30 min preincubation; 10 min room temperature; pH 7.5; read-out: Primary Dose Response Assay: Average EC50
Sequence (P03952 391-638 limits assumed): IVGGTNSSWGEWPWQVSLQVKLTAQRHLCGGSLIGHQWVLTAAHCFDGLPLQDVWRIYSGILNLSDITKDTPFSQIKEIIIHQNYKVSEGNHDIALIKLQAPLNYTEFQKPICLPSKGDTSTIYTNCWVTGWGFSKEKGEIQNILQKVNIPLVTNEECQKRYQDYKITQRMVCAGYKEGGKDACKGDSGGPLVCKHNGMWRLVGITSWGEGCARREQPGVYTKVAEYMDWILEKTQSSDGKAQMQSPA
Sequence (P03952 20-390 partner limits assumed): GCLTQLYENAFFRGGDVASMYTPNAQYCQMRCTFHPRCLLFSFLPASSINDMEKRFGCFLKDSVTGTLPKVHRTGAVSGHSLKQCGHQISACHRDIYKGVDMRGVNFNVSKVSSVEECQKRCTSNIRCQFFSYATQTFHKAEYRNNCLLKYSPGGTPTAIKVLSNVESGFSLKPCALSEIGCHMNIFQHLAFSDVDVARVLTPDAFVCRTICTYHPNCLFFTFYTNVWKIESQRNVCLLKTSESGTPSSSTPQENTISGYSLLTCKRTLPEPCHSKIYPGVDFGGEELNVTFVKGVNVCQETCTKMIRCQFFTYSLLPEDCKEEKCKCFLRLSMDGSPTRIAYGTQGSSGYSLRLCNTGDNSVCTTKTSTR
In short: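 Using fluorogenic PFR-AMC at 300 μM, cleavage by 500 pM human activated kallikrein ran 10 min at room temperature, read at 460 nm emission (380 nm excitation). Enzyme and compounds were first preincubated 30 min in 20 mM Tris pH 7.5, 150 mM NaCl, 1 mM EDTA, 0.1% PEG-400, 0.1% Triton X-100.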

| SMILES | EC50 [nM] |
| --- | --- |
| Cc1ccc2nc(Cn3cc(C(=O)NCc4c(C)cc5c(N(C(=O)OC(C)C)C(=O)OC(C)C)nccc5c4C)cn3)cn2c1 [Example 3, diisopropyl (5,7-dimethyl-6-((1-((6-methylimidazo[1,2-a]pyridin-2-yl)methyl)-1H-pyrazole-4-carboxamido)methyl)isoquinolin-1-yl)iminodicarbonate] | 100 to 1000 |
| Cc1cc2c(N)nccc2c(C)c1CNc1cc(OCc2cnc3ccccn23)cnn1 [Example 414, 6-(((5-(imidazo[1,2-a]pyridin-3-ylmethoxy)pyridazin-3-yl)amino)methyl)-5,7-dimethylisoquinolin-1-amine] | > 1000 |
| Cc1cc2c(N)nccc2c(C)c1CNc1cc(N(C)Cc2ccc(Cn3cccn3)cc2)cnn1 [Example 235, N5-(4-((1H-pyrazol-1-yl)methyl)benzyl)-N3-((1-amino-5,7-dimethylisoquinolin-6-yl)methyl)-N5-methylpyridazine-3,5-diamine] | < 1 |
| Cc1cc2c(N)nccc2c(C)c1CNC(=O)c1cnn(Cc2cnc3c(C)cccc3c2)c1 [Example 72, N-((1-amino-5,7-dimethylisoquinolin-6-yl)methyl)-1-((8-methylquinolin-3-yl)methyl)-1H-pyrazole-4-carboxamide] | < 1 |
| CC(=O)Nc1nccc2c(C)c(CNC(=O)c3cnn(Cc4ccc5ncc(Cl)cc5c4)c3)c(C)cc12 [Example 133, N-((1-acetamido-5,7-dimethylisoquinolin-6-yl)methyl)-1-((3-chloroquinolin-6-yl)methyl)-1H-pyrazole-4-carboxamide] | 10 to 100 |
| Cc1cc2c(N)nccc2c(C)c1CNc1nccc2c1cnn2Cc1cn2cc(C3CC3)cnc2n1 [Example 393, 6-(((1-((6-cyclopropylimidazo[1,2-a]pyrimidin-2-yl)methyl)-1H-pyrazolo[4,3-c]pyridin-4-yl)amino)methyl)-5,7-dimethylisoquinolin-1-amine] | 100 to 1000 |
| Cc1cc2c(N)nccc2c(C)c1CNc1cc(NCc2ccc3ncc(Cl)cc3c2)ncn1 [Example 309, N^4-((1-amino-5,7-dimethylisoquinolin-6-yl)methyl)-N^6-((3-chloroquinolin-6-yl)methyl)pyrimidine-4,6-diamine] | < 1 |
| COCc1nn(Cc2ccc(Cn3cccn3)cc2)cc1C(=O)NCc1c(C)cc2c(N)nccc2c1C [Example 187, 1-(4-((1H-pyrazol-1-yl)methyl)benzyl)-N-((1-amino-5,7-dimethylisoquinolin-6-yl)methyl)-3-(methoxymethyl)-1H-pyrazole-4-carboxamide] | < 1 |
| Cc1cc2c(N)nccc2c(C)c1CNC(=O)c1cnn(Cc2cncnc2)c1 [Example 77, N-((1-amino-5,7-dimethylisoquinolin-6-yl)methyl)-1-(pyrimidin-5-ylmethyl)-1H-pyrazole-4-carboxamide] | 100 to 1000 |
| C=Cc1cnc2ccc(Cn3cc(C(=O)NCc4c(C)cc5c(N)nccc5c4C)cn3)cc2c1 [Example 123, N-((1-amino-5,7-dimethylisoquinolin-6-yl)methyl)-1-((3-vinylquinolin-6-yl)methyl)-1H-pyrazole-4-carboxamide] | < 1 |
| Cc1cc2c(N)nccc2c(C)c1CNc1cc(NCc2ccc(Cn3cccn3)cc2F)ncn1 [Example 379, N^4-(4-((1H-pyrazol-1-yl)methyl)-2-fluorobenzyl)-N^6-((1-amino-5,7-dimethylisoquinolin-6-yl)methyl)pyrimidine-4,6-diamine] | < 1 |
| Cc1cc2c(N)nccc2c(C)c1CNc1cc2c(Cc3ccc4ccccc4c3)c[nH]c2cn1 [Example 526, 5,7-dimethyl-6-(((3-(naphthalen-2-ylmethyl)-1H-pyrrolo[2,3-c]pyridin-5-yl)amino)methyl)isoquinolin-1-amine] | > 1000 |
| CCc1cnc2ccc(Cn3cc(C(=O)NCc4c(C)cc5c(N)nccc5c4C)cn3)cc2c1 [Example 124, N-((1-amino-5,7-dimethylisoquinolin-6-yl)methyl)-1-((3-ethylquinolin-6-yl)methyl)-1H-pyrazole-4-carboxamide] | < 1 |
| Cc1cc2c(N)nccc2c(C)c1CNc1cc(OCc2ccc(Cn3ccccc3=O)cc2)ncn1 [Example 301, 1-(4-(((6-(((1-amino-5,7-dimethylisoquinolin-6-yl)methyl)amino)pyrimidin-4-yl)oxy)methyl)benzyl)pyridin-2(1H)-one] | < 1 |
| Cc1cc2c(N)nccc2c(C)c1CNc1nccc2nnn(Cc3cn4cc(C5CC5)ccc4n3)c12 [Example 253, 6-(((3-((6-cyclopropylimidazo[1,2-a]pyridin-2-yl)methyl)-3H-[1,2,3]triazolo[4,5-c]pyridin-4-yl)amino)methyl)-5,7-dimethylisoquinolin-1-amine] | 100 to 1000 |
| Cc1cc2c(N)nccc2c(C)c1CNC(=O)c1cnn(Cc2cc(Cl)cc(Cl)c2)c1 [Example 37, N-((1-amino-5,7-dimethylisoquinolin-6-yl)methyl)-1-(3,5-dichlorobenzyl)-1H-pyrazole-4-carboxamide] | 10 to 100 |

| SMILES | EC50 [nM] |
| --- | --- |
| Cc1cc2c(N)nccc2c(C)c1CNC(=O)c1cnn(Cc2sc3ccccc3c2Cl)c1 [Example 80, N-((1-amino-5,7-dimethylisoquinolin-6-yl)methyl)-1-((3-chlorobenzo[b]thiophen-2-yl)methyl)-1H-pyrazole-4-carboxamide] | 100 to 1000 |
| Cc1cc2c(N)nccc2c(C)c1CNC(=O)c1cnn(Cc2ccc(CCn3ccccc3=O)cc2)c1 [Example 49, N-((1-amino-5,7-dimethylisoquinolin-6-yl)methyl)-1-(4-(2-(2-oxopyridin-1(2H)-yl)ethyl)benzyl)-1H-pyrazole-4-carboxamide] | 1 to 10 |
| Cc1cc2c(N)nccc2c(C)c1CNc1cc(OCc2cccc(-n3ccccc3=O)c2)ncn1 [Example 370, 1-(3-(((6-(((1-amino-5,7-dimethylisoquinolin-6-yl)methyl)amino)pyrimidin-4-yl)oxy)methyl)phenyl)pyridin-2(1H)-one] | 100 to 1000 |
| Cc1cc2c(N)nccc2c(C)c1CNc1cc(C(O)c2cn3cc(C4CC4)ccc3n2)ccn1 (stereo not shown) [Example 453, (2-(((1-amino-5,7-dimethylisoquinolin-6-yl)methyl)amino)pyridin-4-yl)(6-cyclopropylimidazo[1,2-a]pyridin-2-yl)methanol] | < 1 |
| Cc1cc2c(N)nccc2c(C)c1CNC(=O)c1cnn(Cc2ccc(CC(=O)N3CC4CC4C3)c(Cl)c2)c1 (stereo not shown) [Example I-474, 1-(4-(2-(3-azabicyclo[3.1.0]hexan-3-yl)-2-oxoethyl)-3-chlorobenzyl)-N-((1-amino-5,7-dimethylisoquinolin-6-yl)methyl)-1H-pyrazole-4-carboxamide] | < 1 |
| Cc1c(CNc2cc(NCc3ccc(Cn4ccccc4=O)cc3)cnn2)ccc2c(N)nccc12 [Example 536, 1-(4-(((6-(((1-amino-5-methylisoquinolin-6-yl)methyl)amino)pyridazin-4-yl)amino)methyl)benzyl)pyridin-2(1H)-one] | < 1 |
| Cc1cc2c(N)nccc2c(C)c1CNC(=O)c1cnn(Cc2cc(C(F)(F)F)cc(C(F)(F)F)c2)c1 [Example 95, N-((1-amino-5,7-dimethylisoquinolin-6-yl)methyl)-1-(3,5-bis(trifluoromethyl)benzyl)-1H-pyrazole-4-carboxamide] | 10 to 100 |
| Cc1cc2c(N)nccc2c(C)c1CNc1cc(NCc2cc(C)c(OCc3ccccn3)c(C)c2)ncn1 [Example 353, N^4-((1-amino-5,7-dimethylisoquinolin-6-yl)methyl)-N^6-(3,5-dimethyl-4-(pyridin-2-ylmethoxy)benzyl)pyrimidine-4,6-diamine, formic acid salt] | 10 to 100 |
| Cc1cc2c(N)nccc2c(C)c1CNc1cc(NCc2ccc(Cc3ncccc3Cl)cc2)ncn1 [Example 365, N^4-((1-amino-5,7-dimethylisoquinolin-6-yl)methyl)-N^6-(4-((3-chloropyridin-2-yl)methyl)benzyl)pyrimidine-4,6-diamine] | 1 to 10 |
| Cc1cc2c(N)nccc2c(C)c1CNC(=O)c1cnn(Cc2ccc(C3CC3)cc2)c1 [Example 29, N-((1-amino-5,7-dimethylisoquinolin-6-yl)methyl)-1-(4-cyclopropylbenzyl)-1H-pyrazole-4-carboxamide] | 1 to 10 |
| Cc1cc2c(N)nccc2c(C)c1CNc1cc(OCc2nc3ccc(C4CC4)cn3n2)nc(C(=O)O)n1 [Example I-486, 4-(((1-amino-5,7-dimethylisoquinolin-6-yl)methyl)amino)-6-((6-cyclopropyl-[1,2,4]triazolo[1,5-a]pyridin-2-yl)methoxy)pyrimidine-2-carboxylic acid] | 1 to 10 |
| Cc1cc2c(N)nccc2c(C)c1CNc1cnc2[nH]cc(Cc3ccc4ccccc4c3)c2c1 [Example 527, 5,7-dimethyl-6-(((3-(naphthalen-2-ylmethyl)-1H-pyrrolo[2,3-b]pyridin-5-yl)amino)methyl)isoquinolin-1-amine] | > 1000 |
| Cc1cc2c(N)nccc2c(C)c1CNC(=O)c1cnn(Cc2ccc3c(cnn3C)c2)c1 [Example 52, N-((1-amino-5,7-dimethylisoquinolin-6-yl)methyl)-1-((1-methyl-1H-indazol-5-yl)methyl)-1H-pyrazole-4-carboxamide] | 1 to 10 |
| Cc1cc2c(N)nccc2c(C)c1CNc1cc(OC(C)c2ccc(Cn3cccn3)cc2)cnn1 (single isomer, unassigned) [Example 277, (S*)-6-(((5-(1-(4-((1H-pyrazol-1-yl)methyl)phenyl)ethoxy)pyridazin-3-yl)amino)methyl)-5,7-dimethylisoquinolin-1-amine] | 10 to 100 |
| Cc1cc2c(N)nccc2c(C)c1CNC(=O)c1cnn(Cc2cn3cc(C4CC4(C)C)ccc3n2)c1 (stereo not shown) [Example 176, N-((1-amino-5,7-dimethylisoquinolin-6-yl)methyl)-1-((6-(2,2-dimethylcyclopropyl)imidazo[1,2-a]pyridin-2-yl)methyl)-1H-pyrazole-4-carboxamide] | 1 to 10 |
